Test results reported in ChEMBL document CHEMBL3856190, “Novel spirothiazamenthane inhibitors of the influenza A M2 proton channel” (Eur J Med Chem, 2016).
Active and inactive are the calls of the source. The calls are words filed in the database; no cut-off is given here.

How the values were obtained:
[1] = system: MDCK; assay: Antiviral activity against amantadine-resistant Influenza A virus A/Puerto Rico/8/34 expressing M2 proton channel S31N mutant infected in MDCK cells assessed as inhibition of viral replication at 0.001 to 100 uM measured after 10 hrs by miniplaque assay; type: functional, cell-based; details: Influenza A virus (A/Puerto Rico/8/1934(H1N1))
[2] = system: MDCK; assay: Antiviral activity against amantadine-resistant Influenza A virus A/Puerto Rico/8/34 expressing M2 proton channel V27A mutant infected in MDCK cells assessed as inhibition of viral replication at 100 uM measured after 10 hrs by miniplaque assay; type: functional, cell-based; details: Influenza A virus (A/Puerto Rico/8/1934(H1N1))

SMILES | inhibition [1] | inhibition [2]
CCOCCN1CCN(CCNC2=NC(C)(C)[C@]3(CC[C@H](C)CC3)S2)CC1 | Active | Active
CC1(C)N=C(NCCN2CCN(Cc3ccccc3)CC2)S[C@]12CC[C@@H](C)CC2 | Active | Active
CN(C)CCN1CCN(CCNC2=NC(C)(C)[C@]3(CC[C@H](C)CC3)S2)CC1 | Active | –
CCCCCCCCN1CCN(CCNC2=NC(C)(C)[C@]3(CC[C@H](C)CC3)S2)CC1 | Active | –
CN1CCN(CCNC2=NC(C)(C)[C@]3(CC[C@H](C)CC3)S2)CC1 | Active | –
CC(C)CCN1CCN(CCNC2=NC(C)(C)[C@]3(CC[C@H](C)CC3)S2)CC1 | Active | Active
CCCCN1CCN(CCNC2=NC(C)(C)[C@]3(CC[C@H](C)CC3)S2)CC1 | Active | Active
